The text below walks through data of patent US9879036B2, “Mitochondrial aldehyde dehydrogenase-2 binding compounds and methods of use thereof” (Aviv Therapeutics, Inc., priority 2014, dated 2018).

In one experiment the target is T1, ALDH2*1/*2 (Homo sapiens, UniProt P05091, E504K).
T1 construct: His-tag; made in house; host or cells: E. coli BL21 (pETDuet-1 co-expression)
T1 sequence (P05091 18-517): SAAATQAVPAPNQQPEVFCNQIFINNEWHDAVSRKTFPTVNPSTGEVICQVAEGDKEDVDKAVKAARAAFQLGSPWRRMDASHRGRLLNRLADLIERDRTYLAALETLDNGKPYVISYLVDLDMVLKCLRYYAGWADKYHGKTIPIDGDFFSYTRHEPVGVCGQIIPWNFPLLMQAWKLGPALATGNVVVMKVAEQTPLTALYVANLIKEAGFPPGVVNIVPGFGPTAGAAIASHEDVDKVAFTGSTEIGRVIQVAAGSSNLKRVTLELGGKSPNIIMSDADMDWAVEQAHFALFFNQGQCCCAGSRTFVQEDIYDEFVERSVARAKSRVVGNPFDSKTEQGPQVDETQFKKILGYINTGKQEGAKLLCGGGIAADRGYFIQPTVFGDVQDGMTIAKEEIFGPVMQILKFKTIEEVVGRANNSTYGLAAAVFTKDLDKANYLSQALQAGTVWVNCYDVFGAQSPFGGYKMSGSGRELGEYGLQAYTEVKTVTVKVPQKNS
T1 sequence (P05091 18-517 E504K): T1 sequence (P05091 18-517) with E487K
As to the kind of experiment: ALDH2 enzymatic activity, NADH accumulation at 340 nm, acetaldehyde substrate, heterozygous form. Type of experiment: biochemical. Conditions: relative to baseline enzymatic activity (100%). The method, boiled down:
(§1)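 N-terminally His-tagged recombinant human ALDH2 (wild type, or E487K co-expressed with wild type for heterotetramers) was made in E. coli and Ni-purified. Activity was followed as NADH formation at 340 nm with acetaldehyde and NAD+, with compound at 20 to 0.16 μM, expressed as % of baseline activity.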

The target in a further experiment is T2, ALDH2*1/*1 (Homo sapiens, UniProt P05091).
T2 construct: His-tag (N); made in house; host or cells: E. coli BL21 (pTrcHis vector)
T2 sequence (P05091 18-517): T1 sequence (P05091 18-517)
As to the kind of experiment: ALDH2 enzymatic activity, NADH accumulation at 340 nm, acetaldehyde substrate, wild type. Type of experiment: biochemical. The note with it: relative to baseline enzymatic activity (100%). The method, boiled down:
as §1

Changes are numbered by the printed parent chain.

For `COc1ccc(CNC(=O)c2cc(-c3ncccc3CO)ccc2OCC2CC2)cc1F` [AC6], the activity at 2.5 µM at ALDH2*1/*2 (2.5 μM compound) was found to be 202%; at ALDH2*1/*1 (2.5 μM compound), 208%. Further, the values for the activity at 5 µM at ALDH2*1/*2 (5 μM compound) and at ALDH2*1/*1 (5 μM compound) were 260% and 238%, respectively. Moreover, the activity at 10 µM at ALDH2*1/*2 (10 μM compound) came to 281%; on ALDH2*1/*1 (10 μM compound) it was 293%. The results for the activity at 20 µM on ALDH2*1/*2 (20 μM compound) and at ALDH2*1/*1 (20 μM compound) were 336% and 299%, respectively.
